Legend:
FXR = target: T1, FXR (Homo sapiens, UniProt Q96RI1); test: FXR Transactivation Assay (pBIND-FXR / pGL4.35 luciferase reporter in HEK293T); assay type: cell-based; details: HEK293T cells
T1 construct: expressed in transfected cells; host or cells: HEK293T
T1 sequence (Q96RI1 1-486): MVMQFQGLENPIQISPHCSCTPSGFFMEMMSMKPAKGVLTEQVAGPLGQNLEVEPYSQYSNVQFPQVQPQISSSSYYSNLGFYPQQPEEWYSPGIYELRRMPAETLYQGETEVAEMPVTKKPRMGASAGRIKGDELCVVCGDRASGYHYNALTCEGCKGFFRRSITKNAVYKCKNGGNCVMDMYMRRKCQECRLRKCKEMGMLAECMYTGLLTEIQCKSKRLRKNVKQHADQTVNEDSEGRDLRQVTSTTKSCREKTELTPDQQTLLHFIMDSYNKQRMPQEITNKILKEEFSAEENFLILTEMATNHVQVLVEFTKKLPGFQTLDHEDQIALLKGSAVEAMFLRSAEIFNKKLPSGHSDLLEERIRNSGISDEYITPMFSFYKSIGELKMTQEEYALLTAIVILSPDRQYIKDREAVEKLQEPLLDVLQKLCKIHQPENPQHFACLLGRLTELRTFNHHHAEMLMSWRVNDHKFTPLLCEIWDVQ
Procedure: FXR Transactivation Assay
pGL4.35 [luc2P/9XGAL4 UAS/Hygro]
DMEM medium, high glucose
Fetal Bovine Serum (FBS, heat-inactivated)
Penicillin-Streptomycin (10000 U/ml, 100 ml)
DMEM, High Glucose, HEPES, no Phenol Red
Opti-MEM® I Reduced Serum Medium
Steady-Glo™ Luciferase Assay System
TransIT-293 Transfection Reagent
GW4064 as a positive control
(§1) • 1. Hek293T cells were plated at 1.1*10^6/ml into a 100 mm dish. • 2. Cells were transfected with 8.4 μg of pBind-FXR, 1.26 μg of the reporter vector pGL4.35 (Promega). Cells were incubated at 37° C. under 5% CO2 atmosphere. • 3. All of compounds were 3-fold serial diluted from 10 mM stock for 10 doses in DMSO. • 4. Transfer compound dilutions into 384 well assay plates using liquid workstation. • 5. Seed 25 ul HEK293T cells into 384 well assay plate (prepared step 4) at 0.6*10^5/ml. Cells were incubated at 37° C. under 5% CO2 atmosphere overnight. • 6. Add 25 ul steady-Glo™ Luciferase Assay Reagent into each well of 384-well assay plate. • 7. Record the luminescence value on Envision 2104 plate reader. • 8. Calculate EC50 by fitting % Activity values and log of compound concentrations to nonlinear regression (dose response−variable slope) with Graphpad 5.0. FXR Coactivator Assay Reagents: LanthaScreen™ TR-FRET Farnesoid X Receptor Coactivator Assay GW4064 as a positive control Process: • 1. All of compounds were 3-fold serial diluted from 10 mM stock for 10 doses in DMSO. • 2. Dilute each 100× agonist serial dilution to 2× using Complete Coregulator buffer G. • 3. Transfer 10 μl of each of the 2× agonist serial dilutions to 384 well assay plates. • 4. […] Incubate at room temperature protected from light. • 7. Read the plate at wavelengths of 520 nm and 495 nm on Envision 2104 plate reader. • 8. Calculate the TR-FRET ratio by dividing the emission signal at 520 nm by the emission signal at 495 nm. • 9. Calculate EC50 by fitting % Activity values and log of compound concentrations to nonlinear regression (dose response−variable slope) with Graphpad 5.0.

FXR-LBD = target: T2, FXR-LBD (Homo sapiens, UniProt Q96RI1); test: FXR Coactivator Assay (LanthaScreen TR-FRET); assay type: biochemical
T2 construct: Add 5 μl of 4×FXR-LBD to 384 well assay plates; purchased
T2 sequence (Q96RI1 262-486 limits assumed): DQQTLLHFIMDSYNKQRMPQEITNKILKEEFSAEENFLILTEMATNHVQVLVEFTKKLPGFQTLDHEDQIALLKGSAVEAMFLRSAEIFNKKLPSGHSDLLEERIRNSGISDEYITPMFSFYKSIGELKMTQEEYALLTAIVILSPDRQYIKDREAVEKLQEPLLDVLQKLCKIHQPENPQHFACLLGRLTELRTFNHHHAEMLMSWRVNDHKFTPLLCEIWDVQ
Procedure: as §1

EC50 (FXR) [nM] | EC50 (FXR-LBD) [nM] | SMILES
10 to 100 | 10 to 100 | CC(C)c1onc(-c2c(Cl)cccc2Cl)c1COc1ccc(C2CC2(C)c2cncc(C(=O)O)c2)c(Cl)c1 (single isomer, unassigned) [IV-05-1, 5-[2-(2-Chloro-4-[[3-(2,6-dichlorophenyl)-5-(propan-2-yl)-1,2-oxazol-4-yl]methoxy]phenyl)-1-methylcyclopropyl] pyridine-3-carboxylic Acid]
101 to 400 | 10 to 100 | CC(C)c1onc(-c2c(Cl)cccc2Cl)c1COc1ccc(C2CC2(C)c2cncc(C(=O)O)c2)c(Cl)c1 (single isomer, unassigned) [IV-05-2, 5-[2-(2-Chloro-4-[[3-(2,6-dichlorophenyl)-5-(propan-2-yl)-1,2-oxazol-4-yl]methoxy]phenyl)-1-methylcyclopropyl] pyridine-3-carboxylic Acid]
101 to 400 | 10 to 100 | N#CC1(c2ccc(OCc3c(-c4c(Cl)cccc4Cl)noc3C3CC3)cc2Cl)CC1c1cccc(C(=O)O)c1 (single isomer, unassigned) [VII-03-1, 3-[2-(2-Chloro-4-[[5-cyclopropyl-3-(2,6-dichlorophenyl)-1,2-oxazol-4-yl]methoxy]phenyl)-2-cyanocyclopropyl] benzoic Acid]
101 to 400 | 10 to 100 | CC(C)c1onc(-c2c(Cl)cccc2Cl)c1COc1ccc(C2CC2(C#N)c2cccc(C(=O)O)c2)c(Cl)c1 (stereo not shown) [Compound V-02]
401 to 5000 | 101 to 400 | CC(C)c1onc(-c2c(Cl)cccc2Cl)c1COc1ccc(C2CC2(C)c2ccc(C(=O)O)cc2)c(Cl)c1 (stereo not shown) [IV-01]
101 to 400 | 10 to 100 | CC(C)c1onc(-c2c(Cl)cccc2Cl)c1COc1ccc(C2CC2(C)c2cccc(C(=O)O)c2)c(Cl)c1 (stereo not shown) [IV-02]
101 to 400 | 10 to 100 | CC1(c2cccc(C(=O)O)c2)CC1c1ccc(OCc2c(-c3c(Cl)cccc3Cl)noc2C2CC2)cc1Cl (stereo not shown) [IV-03]
10 to 100 | 10 to 100 | CC(C)c1onc(-c2c(Cl)cccc2Cl)c1COc1ccc(C2CC2(C)c2cncc(C(=O)O)c2)c(Cl)c1 (stereo not shown) [IV-05, 5-[2-(2-Chloro-4-[[3-(2,6-dichlorophenyl)-5-(propan-2-yl)-1,2-oxazol-4-yl]methoxy]phenyl)-1-methylcyclopropyl] pyridine-3-carboxylic Acid]
10 to 100 | 10 to 100 | CC1(c2cncc(C(=O)O)c2)CC1c1ccc(OCc2c(-c3c(Cl)cccc3Cl)noc2C2CC2)cc1Cl (stereo not shown) [IV-06, 5-[2-(2-Chloro-4-[[5-cyclopropyl-3-(2,6-dichlorophenyl)-1,2-oxazol-4-yl]methoxy]phenyl)-1-methylcyclopropyl] pyridine-3-carboxylic Acid]
101 to 400 | 10 to 100 | COc1cc(C(=O)O)cc2sc(C3(C)CC3c3ccc(OCc4c(-c5c(Cl)cccc5Cl)noc4C4CC4)cc3Cl)nc12 (stereo not shown) [IV-15, 2-[2-(2-Chloro-4-[[5-cyclopropyl-3-(2,6-dichlorophenyl)-1,2-oxazol-4-yl]methoxy]phenyl)-1-methylcyclopropyl]-4-methoxy-1,3-benzothiazole-6-carboxylic Acid]
101 to 400 | 10 to 100 | CC(C)c1onc(-c2c(Cl)cccc2Cl)c1COc1ccc(C2CC2(C)c2cc(C(=O)O)nn2C(C)C)c(Cl)c1 (stereo not shown) [IV-20]
101 to 400 | 10 to 100 | CC(C)c1onc(-c2c(Cl)cccc2Cl)c1COc1ccc(C2(C)CC2c2ccc(C(=O)O)cc2)c(Cl)c1 (stereo not shown) [VI-01, 4-(2-(2-Chloro-4-((3-(2,6-dichlorophenyl)-5-isopropylisoxazol-4-yl)methoxy)phenyl)-2-methylcyclopropyl) benzoic Acid]
10 to 100 | 10 to 100 | CC(C)c1onc(-c2c(Cl)cccc2Cl)c1COc1ccc(C2(C)CC2c2cccc(C(=O)O)c2)c(Cl)c1 (stereo not shown) [VI-02]
10 to 100 | 10 to 100 | CC(C)c1onc(-c2c(Cl)cccc2Cl)c1COc1ccc(C2(C)CC2c2cncc(C(=O)O)c2)c(Cl)c1 (stereo not shown) [VI-04, 5-[2-(2-Chloro-4-[[3-(2,6-dichlorophenyl)-5-(propan-2-yl)-1,2-oxazol-4-yl]methoxy]phenyl)-2-methylcyclopropyl] pyridine-3-carboxylic Acid]

From US10899723B2, “Heterocyclic containing cyclopropyl FXR modulators” (Hepagene Therapeutics (HK) Limited, priority 2016, dated 2021)
